Assay results: patent US20260224538A1 (Purdue Research Foundation, priority 2023, published 2026)

What was measured:
[1] = biological target: T1, transthyretin fragment peptide (TTR81-127) (Homo sapiens, UniProt P02766); assay: ThT fluorescence assay of TTR81-127 fibril formation; assay type: biochemical; settings: for remaining activity at 100 µM: compounds at 100 μM, TTR81-127 10 μM, control 0.25% DMSO, read-out: ThT TTR81-127 (%), maximum thioflavin T (ThT) intensity in percentage
T1 construct: TTR fragment 81-127 was obtained from AnaSpec; purchased AnaSpec; host or cells: synthetic peptide
Method: (§1) Thioflavin-T (ThT) fluorescence assays. Thioflavin-T (ThT) fluorescence assays were used to monitor fibril formation of recombinant Ap (fragments 1-40 and 1-42), recombinant α-syn, recombinant tau isoform 2N4R, synthetic IAPP, and synthetic TTR peptides treated with BTA and its derivatives. The IAPP ThT assay was performed in 10 mM PBS (pH 7.4) at a final concentration of 10 μM for both IAPP and ThT as published previously. Aβ fragments 1-40 and 1-42 were tested at 7 μM in 10 mM of PBS using ThT at a final concentration of 20 μM. Kinetics of α-syn fibrillization were performed as published previously.^36-37 TTR fragment kinetics of fibril formation were assessed at 10 μM in 100 mM sodium acetate buffer supplemented with 100 mM KCl and 1 mM ethylenediaminetetraacetic acid (EDTA) (pH 4) with 20 μM ThT. The fluorescence emission experiments were performed with the excitation and emission wavelengths set at 440 and 485 nm, respectively, with a Synergy HT multi-mode microplate reader (BioTek, Winooski, VT). Samples were measured in three replicates, and the experiments were repeated three times using at least two different stock solutions. For each time point, arbitrary units of fluorescence were calculated from the mean values normalized against the maximum value in each completed assay. The lag time for each condition was calculated as previously described. All results contained in histograms were presented as mean±SEM. Data were analyzed by the one-way analysis of variance with Dunnett's multiple comparisons between controls and compounds. Differences were considered statistically significant at p<0.05.

α-syn [2] = biological target: T2, α-syn (Homo sapiens, UniProt P37840); assay: Photo-induced cross-linking of unmodified proteins (PICUP), α-syn oligomerization; assay type: biochemical; settings: compound 200 μM
T2 construct: purchased rPeptide

α-synuclein (α-syn) = biological target: T3, α-synuclein (α-syn) (Homo sapiens, UniProt P37840); assay: Thioflavin-T (ThT) fluorescence assay of α-syn fibril formation; assay type: biochemical; settings: for remaining activity at 100 µM: compounds at 100 μM, α-syn 6.25 μM, control 0.25% DMSO, read-out: ThT a-Syn (%), maximum thioflavin T (ThT) intensity in percentage
T3 construct: purchased rPeptide
Method: as §1
(§2) Compounds with the highest anti-fibrillary activity were tested at 3.125, 6.25, 12.5, 25, 50, and 100 μM to obtain dose-response curves with prepared α-syn and 2N4R tau at 6.25 μM and 6 μM, respectively. Compounds were tested with α-syn using a previously published procedure. Concerning the tau (isoform 2N4R) kinetics of fibril formation, measurements of ThT fluorescence were performed with a solution of the protein diluted to a final concentration of 6 μM in PBS (pH 7.4) supplemented with 1.5 μM heparin, 20 μM ThT, 2.5 mM DTT, and 100 μM compound. Aliquots of the diluted protein solution (100 μL each) were pipetted into the wells of a 96-well plate, and a Teflon ball was added to each well. The plate was incubated at 37° C. with constant shaking at 1,000 rpm in a Tecan Spark plate reader. ThT fluorescence was measured every 15 minutes with excitation and emission wavelengths of 440 nm and 480 nm, and the data were plotted using GraphPad Prism.

tau isoform 2N4R [3] = biological target: T4, tau isoform 2N4R (Homo sapiens, UniProt P10636); assay: ThT kinetics of tau isoform 2N4R fibril formation; assay type: biochemical; settings: tau 6 μM, compound 100 μM
T4 construct: made in house; host or cells: E. coli BL21(DE3)
T4 sequence (P10636 1-441 isoform P10636-8): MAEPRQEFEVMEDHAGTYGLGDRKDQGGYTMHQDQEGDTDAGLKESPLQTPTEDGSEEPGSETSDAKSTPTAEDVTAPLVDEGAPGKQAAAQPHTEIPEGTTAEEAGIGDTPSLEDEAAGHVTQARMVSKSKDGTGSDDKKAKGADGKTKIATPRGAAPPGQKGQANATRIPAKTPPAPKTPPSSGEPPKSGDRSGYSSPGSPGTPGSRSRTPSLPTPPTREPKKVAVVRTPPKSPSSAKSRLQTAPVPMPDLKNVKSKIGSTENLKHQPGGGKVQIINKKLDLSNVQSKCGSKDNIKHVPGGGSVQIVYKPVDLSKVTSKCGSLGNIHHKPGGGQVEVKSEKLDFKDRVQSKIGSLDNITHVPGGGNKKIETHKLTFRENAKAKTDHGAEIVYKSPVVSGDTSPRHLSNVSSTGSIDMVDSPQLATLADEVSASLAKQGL
Method: (§3) The bacterial expression plasmid consisting of the vector pRK172 carrying a cDNA encoding the human Tau 2N4R isoform was obtained from Dr. David Eliezer (Weill Cornell Medicine, New York, NJ). For protein expression, E. coli BL21(DE3) cells were transformed with the plasmid and grown in LB media supplemented with ampicillin (100 μg/mL). Protein over-expression was induced by the addition of 1 mM IPTG for 4 hours at 37° C., and cells were pelleted by centrifugation at 6,000 g for 15 minutes at 4° C. The cells were resuspended in lysis buffer (20 mM MES, 400 mM NaCl, 0.2 mM MgCl2, 1 mM EGTA, protease inhibitor cocktail (P8340, Sigma Aldrich), 0.25 mg/mL lysozyme, and 1 μg/mL DNase 1, pH 6.8) and lysed by a French press cell disruptor at 4° C., after which the lysate was boiled for 20 minutes. Denatured proteins were pelleted by centrifugation at 30,000 g for 30 minutes at 4° C., and the supernatant was dialyzed overnight against cation exchange buffer (20 mM MES, 50 mM NaCl, 1 mM MgCl2, 1 mM EGTA, 2 mM DTT, 0.1 mM PMSF, pH 6.8). The dialysate was loaded onto a HiPrep SP HP column, and proteins were eluted with a linear gradient ranging from 50 mM to 1 M NaCl. Fractions containing tau isoform 2N4R were pooled, and the resulting protein solution was dialyzed against PBS (pH 7.4) and stored at −80° C.
as §2

α-syn [4] = biological target: T2, α-syn; assay: Photo-induced cross-linking of unmodified proteins (PICUP), α-syn oligomerization; assay type: biochemical; settings: compound 50 μM, molar ratio 1:5 (protein:compound)
Method: (§4) Photo-induced Cross-linking of Unmodified Proteins (PICUP) Assay. To induce oligomerization by cross-linking, α-syn (from Rpeptide, LLC) and tau isoform 2N4R were diluted in 10 mM phosphate buffer (pH 7.4) to reach a final concentration of 10 μM. Different compounds were added to the protein solution at a final concentration of 50 μM, resulting in a molar ratio of 1:5. To confirm the gradual effect of the compounds on the inhibition of α-syn oligomerization, the compounds were tested at final concentrations of 3.125, 6.25, 12.5, 25, and 50 μM. The controls consisted of samples without light exposition, without Ru(bpy) or ammonium persulfate, and without compound (i.e., 0.125% DMSO). The cross-linking reaction was initiated by the addition of 2 μL of Ru(bpy) (300 μM final concentration) and 2 μL ammonium persulfate (6 mM final concentration). Samples were irradiated immediately. Light exposure was of a one-second duration for α-syn and a three-second duration for tau isoform 2N4R, with a 53 W (120 V) incandescent lamp installed in a homemade dark-box. Each tube contained a final volume of 20 μL. After irradiation, 8.3 μL of Laemmli loading buffer containing 15% β-mercaptoethanol were immediately added to the solution, followed by incubation at 95° C. for 10 minutes. The cross-linked samples were separated on a 16% SDS-PAGE gel and visualized by Coomassie blue staining.

tau isoform 2N4R [5] = biological target: T4, tau isoform 2N4R; assay: PICUP, tau isoform 2N4R oligomerization; assay type: biochemical; settings: compound 50 μM
Method: as §3, §4

[6] = biological target: T5, islet amyloid polypeptide (IAPP) (Homo sapiens, UniProt P10997); assay: ThT fluorescence assay of IAPP fibril formation; assay type: biochemical; settings: screen on prone-to-aggregate proteins (FIG. 2A, FIG. 4A); IAPP 10 μM
T5 construct: Human islet amyloid polypeptide (IAPP) was procured from AnaSpec; purchased AnaSpec; host or cells: synthetic peptide
T5 sequence (P10997 34-70 limits assumed): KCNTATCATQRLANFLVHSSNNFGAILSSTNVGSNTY
Method: as §1, with “All results contained in histograms were presented as mean±SEM. Data were analyzed by the one-way analysis of variance with Dunnett's multiple comparisons between controls and compounds. Differences were considered statistically significant at p<0.05.” left out

Aβ1-42 = biological target: T6, Aβ1-42 (Homo sapiens, UniProt P05067); assay: ThT fluorescence assay of Aβ1-42 fibril formation; assay type: biochemical; settings: screen on prone-to-aggregate proteins (FIG. 2A, FIG. 4A); Aβ 7 μM
T6 construct: α-syn, Aβ1-40, Aβ1-42 were procured from rPeptide; purchased rPeptide
T6 sequence (P05067 672-713 limits assumed): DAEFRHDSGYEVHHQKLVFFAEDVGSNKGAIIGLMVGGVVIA
Method: as §1

Aβ1-40 = biological target: T7, Aβ1-40 (Homo sapiens, UniProt P05067); assay: ThT fluorescence assay of Aβ1-40 fibril formation; assay type: biochemical; settings: screen on prone-to-aggregate proteins (FIG. 4A); Aβ 7 μM
T7 construct: α-syn, Aβ1-40, Aβ1-42 were procured from rPeptide; purchased rPeptide
T7 sequence (P05067 672-711 limits assumed): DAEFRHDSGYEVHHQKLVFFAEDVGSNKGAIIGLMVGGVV
Method: as §1, with “All results contained in histograms were presented as mean±SEM. Data were analyzed by the one-way analysis of variance with Dunnett's multiple comparisons between controls and compounds. Differences were considered statistically significant at p<0.05.” left out

TTR101-125 = biological target: T8, TTR101-125 (Homo sapiens, UniProt P02766); assay: ThT fluorescence assay of TTR101-125 fibril formation; assay type: biochemical
T8 construct: TTR fragments 1-25, 26-50, 51-75, 76-100, 81-105, 101-125, and 101-125 were obtained from GenScript; purchased GenScript; host or cells: synthetic peptide
Method: as §1

TTR81-127 = biological target: T9, TTR81-127 (Homo sapiens, UniProt P02766); assay: TEM of TTR81-127 fibrils; assay type: biochemical; settings: compound 100 μM, TTR81-127 10 μM, sodium acetate buffer pH 4
T9 construct: TTR fragment 81-127 was obtained from AnaSpec; purchased AnaSpec; host or cells: synthetic peptide

α-syn [7] = biological target: T2, α-syn; assay: Transmission electron microscopy (TEM) of α-syn fibrils; assay type: biochemical; settings: compound 100 μM
Method: (§5) Transmission electron microscopy (TEM). After performing analysis with ThT fluorescence assay, TEM was utilized to detect fibril formation. A volume of 10 μL was applied to a 400-mesh Formvar-carbon-coated copper grid (Electron Microscopy Sciences, Hatfield, PA). The grids were incubated for 1 minute and washed three times with distilled water. They were carefully air-dried and incubated for 1 minute in a fresh solution of 1% uranyl acetate. Samples were air-dried and observed using a transmission microscope. Visualization of the grids was performed with TEM (JEOL 1400 Flash, Japan). Acquisition of pictures was performed with settings of accelerating voltage of 100 kV and magnification of 25 k and/or 40 k.

[8] = test system: M17D neuroblastoma cells that express inclusion-prone αS-3K::YFP; assay: α-Syn inclusion-forming neuroblastoma cell experiment; assay type: cell-based; settings: 40 μM; t=96 hours
Method: α-Syn (or αS) inclusion-forming neuroblastoma cell experiment. Dox-inducible neuroblastoma cells M17D-TR/αS-3K::YFP have been used previously. 96-well plates were used with a cellular density of 30,000 cells per well. Compounds were added […], and αS-3K::YFP transgene expression was induced […]. Induction was done by adding 1 μg per mL (final concentration) dox to culture media. Cells were incubated in the Incucyte Zoom 2000 platform (Essen Biosciences), and images (green, bright field) were taken continuously. Endpoint analysis of inclusion formation or growth was performed 48 hours after induction (96 hours after plating). The Incucyte processing definition ‘Inclusions’ was created as follows: Parameters, Fixed Threshold, Threshold (GCU) 50; Edge Split On, Edge Sensitivity 100; Cleanup, Hole Fill (μm^2): 10, Adjust Size (pixels): 0; Filters, Area (μm^2): max 50, Mean Intensity: min 60, Integrated Intensity: min 2000. Cell confluence was measured by the processing definition ‘Cells’: Parameters, Segmentation Adjustment 0.7; Cleanup, all parameters set to 0; Filters, Area (μm^2): min 345.00. As described previously for the evaluation of protein expression by SDS-PAGE and Western Blotting in the LiCor system, αS-specific monoclonal antibody 4B12 (Thermofisher, Waltham, MA; 1:1000) and a polyclonal antibody to GAPDH (Sigma-Aldrich, St. Louis, MO, G9545; 1:5000) were used.

IAPP = biological target: T10, IAPP (Homo sapiens, UniProt P10997); assay: TEM of IAPP fibrils; assay type: biochemical; settings: compound 100 μM, IAPP 10 μM, PBS
T10 construct: Human islet amyloid polypeptide (IAPP) was procured from AnaSpec; purchased AnaSpec; host or cells: synthetic peptide
T10 sequence (P10997 34-70 limits assumed): T5 sequence (P10997 34-70 limits assumed)
Method: as §5

[9] = screen on prone-to-aggregate proteins (FIG. 2A, FIG. 4A)
[10] = compound 100 μM, molar ratio 1:10

CCNC(=O)N(C(=O)NCC)c1nsc2ccc([N+](=O)[O-])cc12 [Compound 13, N-ethyl-1-[(ethylcarbamoyl)(5-nitro-1,2-benzothiazol-3-yl)amino]formamide]
remaining activity at 100 µM [1]: 73.4 ± 1.9%
α-syn oligomer formation (PICUP) at high concentration (α-syn [2]): reduced substantially the oligomer formation
remaining activity at 100 µM (α-synuclein (α-syn)): 16.4 ± 7.8%
lag time of tau isoform 2N4R fibril formation (tau isoform 2N4R [3]): delayed the lag time
production of tau isoform 2N4R fibrils (ThT kinetic aggregation curves) (tau isoform 2N4R [3]): reduced the production of tau isoform 2N4R fibrils

Clc1nc(Cl)nc(Nc2ccc(-c3nc4ccccc4s3)cc2)n1 [Compound 5, N-[4-(1,3-benzothiazol-2-yl)phenyl]-4,6-dichloro-1,3,5-triazin-2-amine]
remaining activity at 100 µM [1]: > 100%
thioflavin T fluorescence intensity, TTR81-127 [1, 9]: greater than 100%
α-syn oligomer formation (PICUP) (α-syn [4]): high molecular weight bands representing the oligomeric species
tau isoform 2N4R oligomer formation (PICUP) (tau isoform 2N4R [5]): high molecular weight bands representing the oligomeric species
thioflavin T fluorescence intensity, IAPP [6]: greater than 100%
remaining activity at 100 µM (α-synuclein (α-syn)): > 100%
thioflavin T fluorescence intensity, α-syn (α-synuclein (α-syn); [9]): greater than 100%
thioflavin T fluorescence intensity, Aβ1-42 (Aβ1-42): greater than 100%
thioflavin T fluorescence intensity, Aβ1-40 (Aβ1-40): greater than 100%
thioflavin T fluorescence intensity, TTR101-125 (TTR101-125; screen on prone-to-aggregate proteins (FIG. 4A)): greater than 100%

Nc1ccc(-c2nc3ccccc3s2)cc1 [BTA, 4-(2-benzothiazolyl)aniline, reference compound]
TTR81-127 fibrils by TEM (TTR81-127): reduced fibril formation
α-syn fibrils by TEM (α-syn [7]): no such branching was observed
TTR81-127 fibril formation (ThT) [1, 10]: reduced fibril formation
α-syn oligomer formation (PICUP) (α-syn [4]): not successful in preventing oligomerization
cell confluence [8]: reduction in confluence
number of αS-3K::YFP inclusions [8]: did not affect the number of inclusions
tau isoform 2N4R oligomer formation (PICUP) (tau isoform 2N4R [5]): not successful in preventing oligomerization
thioflavin T fluorescence intensity, Aβ1-42 (Aβ1-42): 22.59±0.71%
TTR101-125 fibril formation (ThT) (TTR101-125; compound 25 μM, molar ratio 1:2.5): continued to reduce TTR101-125 fibrils
TTR101-125 fibril formation (ThT) (TTR101-125; [10]): reduced fibril formation
IAPP fibrils by TEM (IAPP): no such branching was observed
